Results as given in the Deep4Chem optical property database.

Assay: solvent given as SMILES

COCCOCCOCCOc1ccc(OCCOCCOCCOC)c(C=O)c1
emission maximum (in CC(C)(C)O): 444 nm
emission maximum (in CC(C)CO): 453 nm
emission maximum (in CC(C)O): 455 nm
emission maximum (in CCCCO): 458 nm
emission maximum (in CCCO): 459 nm
emission maximum (in CCO): 462 nm
emission maximum (in CN(C)C=O): 423 nm
emission maximum (in CNC=O): 458 nm
emission maximum (in CO): 468 nm
emission maximum (in NC=O): 463 nm
emission maximum (in O): 485 nm

CCCCCCn1c2cc(/C=C(\C#N)c3ccccc3)ccc2c2ccc(/C=C(\C#N)c3ccccc3)cc21
emission maximum (in ClC(Cl)Cl): 469.48 nm

Cn1cc(-c2nc3ccccc3nc2C#Cc2ccc(C#N)cc2)c2ccccc21
emission maximum (in ClCCl): 520 nm

C[SiH](C)c1cccc2ccccc12
emission maximum (in C1CCCCC1): 328 nm

COc1ccc(C(=O)NC(C)(C)C)c2c1ccc1c3ccccc3c3ccccc3c12
emission maximum (in ClCCl): 407 nm

CC(C)(C)c1ccc2c(c1)c1cc(C(C)(C)C)ccc1n2-c1ccc(-c2nc3cc(C#N)c(C#N)cc3nc2-c2ccc(-n3c4ccc(C(C)(C)C)cc4c4cc(C(C)(C)C)ccc43)cc2)cc1
emission maximum (in Cc1ccccc1): 544 nm

CC1=C(I)C(C)=[N+]2C1=C(c1c(-c3ccccn3)nc3ccccn13)c1c(C)cc(C)n1[B-]2(F)F
emission maximum (in ClCCl): 558 nm

O=C1c2ccccc2S(=O)(=O)c2ccc(-n3c4ccccc4c4ccccc43)cc21
emission maximum (in C1CCOC1): 576 nm
emission maximum (in CCCCCC): 485 nm
emission maximum (in Cc1ccccc1): 535.5 nm
emission maximum (in ClC(Cl)Cl): 595.5 nm
emission maximum (in ClCCl): 609.5 nm

CCN(CC)c1cccc2c1ccc1c(=O)oc(-c3ccc(C(F)(F)F)cc3)cc12
emission maximum (in CC(C)=O): 604 nm
emission maximum (in CCCCCC): 469 nm
emission maximum (in CCCCCCCCO): 561 nm
emission maximum (in CCCCO): 578 nm
emission maximum (in CCCO): 587 nm
emission maximum (in CCO): 599 nm
emission maximum (in CCOC(C)=O): 568 nm
emission maximum (in CN(C)C=O): 613 nm
emission maximum (in CO): 604 nm
emission maximum (in ClC(Cl)Cl): 542 nm

CCn1c(=O)nc2n(C)c3cc(C)ccc3nc-2c1=O
emission maximum (in C1COCCO1): 527 nm
emission maximum (in CC#N): 530 nm
emission maximum (in CO): 532 nm
emission maximum (in ClCCCl): 531 nm

c1ccc(Nc2nc(Nc3ccccc3)nc(Nc3ccc4c5cccc6cccc(c7cccc3c74)c65)n2)cc1
emission maximum (in C1COCCO1): 487 nm
emission maximum (in CC#N): 492 nm
emission maximum (in CCCCOCCCC): 486 nm
emission maximum (in CCOC(C)=O): 488 nm

Cc1cc(=O)oc2c1cc(Br)c1occ(C)c12
emission maximum (in C1CCCCC1): 400 nm
emission maximum (in C1COCCO1): 407 nm
emission maximum (in CC#N): 413 nm
emission maximum (in CCO): 416 nm
emission maximum (in OCC(F)(F)F): 426 nm

CC/[NH+]=c1\cc2oc3cc(NCCC(=O)NC(C(=O)OC)c4ccccc4)c4ccccc4c3nc-2cc1C (stereo unspecified)
emission maximum (in CCO): 644 nm
emission maximum (in O): 657 nm

O=S(=O)([O-])c1ccc([O-])c2ccccc12
emission maximum (in O): 435 nm

CN(C)c1ccc(-c2cc(-c3ccc(N(C)C)cc3)ncn2)cc1
emission maximum (in ClCCl): 429 nm

C(=C\c1c2ccccc2cc2ccccc12)/c1ccc2ccccc2c1
emission maximum (in CC1CCCCC1): 488 nm
emission maximum (in CC#N): 490 nm

C1=Cc2nc1c(-c1ccccc1)c1ccc([nH]1)c(-c1ccccc1)c1cc(c(-c3ccccc3)c3ccc([nH]3)c2-c2ccccc2)N=C1
emission maximum (in ClCCl): 744 nm

c1ccc(-c2nc(-c3ccccc3)c(-c3ccccc3)o2)cc1
emission maximum (in Cc1ccccc1): 381 nm

c1ccc2c(c1)[nH]c1cccnc12
emission maximum (in C1CCCCC1): 341 nm
emission maximum (in C1CCOC1): 352 nm
emission maximum (in C1COCCO1): 367 nm
emission maximum (in CCO): 385 nm
emission maximum (in CN(C)C=O): 371 nm
emission maximum (in Cc1ccccc1): 350 nm
emission maximum (in ClC(Cl)Cl): 369 nm
emission maximum (in Clc1ccccc1): 364 nm

CCn1c(-c2ccc(-c3cccc4ccccc34)cc2)c(-c2ccc3ccccc3c2)c(-c2ccc3ccccc3c2)c1-c1ccc(-c2cccc3ccccc23)cc1
emission maximum (in CCOC(C)=O): 429 nm

COc1c2ccccc2c(OC)c2c(C#Cc3ccccc3)c3cc4sccc4cc3c(C#Cc3ccccc3)c12
emission maximum (in ClCCl): 672 nm

Nc1ccc2nc(-c3ccccc3)c(=O)oc2c1
emission maximum (in c1ccccc1): 480 nm

CCn1c(-c2ccc(-c3ccc4c(c3)C(c3ccccc3)(c3ccccc3)c3ccccc3-4)cc2)c(-c2ccc3ccccc3c2)c(-c2ccc3ccccc3c2)c1-c1ccc(-c2ccc3c(c2)C(c2ccccc2)(c2ccccc2)c2ccccc2-3)cc1
emission maximum (in CCOC(C)=O): 441 nm

CN(C)c1ccc(/C=C/c2ccc3ccccc3[n+]2C)cc1
emission maximum (in CC#N): 618 nm
emission maximum (in ClCCl): 645 nm
emission maximum (in O): 622 nm

C[Si](C)(C)c1ccc([Si](C)(C)C)c2ccccc12
emission maximum (in C1CCCCC1): 333 nm

c1ccc(N(c2ccccc2)c2ccc(-n3ccc4cc(-c5ccc(C6(c7ccccc7)c7ccccc7-c7ccccc76)cc5)ccc43)cc2)cc1
emission maximum (in ClCCl): 379 nm

CC1(C)c2ccccc2N(c2ccc(-c3nc4cc(C#N)c(C#N)cc4nc3-c3ccc(N4c5ccccc5C(C)(C)c5ccccc54)cc3)cc2)c2ccccc21
emission maximum (in Cc1ccccc1): 620 nm
